Source: the supplement of paper PMC10307832

Compound: Cn1cc(-c2cnn3c(N)c(Br)c([C@@H]4CCCNC4)nc23)cn1 + Cc1cc(Nc2cc(N3CCN(C)CC3)nc(Sc3ccc(NC(=O)C4CC4)cc3)n2)n[nH]1 [Tozasertib] (partner 0.1 µM)
Experiment: relative viability (nuclei count vs DMSO), 5 days (fraction); higher = more cells survive
How it was run: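 For relative viability, nuclei counts in treated wells were divided by those in vehicle wells. Lung cancer cell lines had been pin-tool dosed in 1536-well plates the day after seeding and cultured for 5 days, then fixed and stained in one step (final 0.05% Triton X-100, 1% formaldehyde, 1 ug/ml Hoechst) and imaged at 4×. Doses were one drug alone or a fixed anchor-drug dose plus five library-drug doses (not always all listed) in √10 steps, and values are duplicate-plate medians.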

Row | Cell Line | relative viability (first compound 0.05 µM) | relative viability (first compound 0.1581 µM) | relative viability (first compound 0.5 µM) | relative viability (first compound 1.581 µM) | relative viability (first compound 5 µM)
1 | 201T | 0.932 | 0.992 | 0.898 | 0.776 | 0.758
2 | A-427 | 0.185 | 0.246 | 0.206 | 0.192 | 0.154
3 | ABC-1 | 0.159 | 0.156 | 0.219 | 0.127 | 0.136
4 | BEN | 0.606 | 0.494 | 0.467 | 0.714 | 0.489
5 | CAL-12T | 0.38 | 0.326 | 0.255 | 0.174 | 0.113
6 | COR-L23 | 0.201 | 0.158 | 0.211 | 0.163 | 0.102
7 | COR-L 105 | 0.31 | 0.4 | 0.293 | 0.312 | 0.321
8 | ChaGo-K-1 | 0.222 | 0.22 | 0.227 | 0.224 | 0.225
9 | EKVX | 0.423 | 0.449 | 0.448 | 0.462 | 0.344
10 | EMC-BAC-2 | 0.277 | 0.292 | 0.251 | 0.252 | 0.218
11 | EPLC-272H | 0.252 | 0.249 | 0.25 | 0.247 | 0.226
12 | H3255 | 0.614 | 0.569 | 0.727 | 0.224 | 0.447
13 | HARA | 0.115 | 0.616 | 0.0879 | 0.0826 | 0.0524
14 | HCC-15 | 0.401 | 0.392 | 0.386 | 0.256 | 0.212
15 | HCC-44 | – | 0.875 | 1.12 | 0.637 | 0.618
16 | HCC-78 | – | 0.456 | 0.404 | 0.407 | 0.279
17 | HCC-366 | 0.144 | 0.703 | 0.169 | 0.0808 | 0.0856
18 | HCC-827 | 0.426 | 0.392 | 0.439 | 0.516 | 0.394
19 | HOP-62 | 0.334 | 0.348 | 0.335 | 0.252 | 0.249
20 | LC-2-ad | 0.39 | 0.382 | 0.442 | 0.464 | 0.355
21 | LCLC-97TM1 | 0.202 | 0.286 | 0.188 | 0.269 | 0.194
22 | LCLC-103H | 0.543 | 0.57 | 0.469 | 0.364 | 0.313
23 | LK-2 | 0.196 | 0.17 | 0.162 | – | 0.161
24 | LOU-NH91 | 0.585 | 0.585 | 0.609 | 0.683 | 0.497

Row | Cell Line | relative viability (first compound 0.05 µM) | relative viability (first compound 0.1581 µM) | relative viability (first compound 0.5 µM) | relative viability (first compound 1.581 µM) | relative viability (first compound 5 µM)
25 | LU99A | 0.271 | 0.243 | 0.258 | 0.243 | 0.193
26 | LXF-289 | 0.209 | 0.219 | 0.189 | 0.168 | 0.162
27 | NCI-H23 | 0.247 | 0.878 | 0.399 | 0.311 | 0.179
28 | NCI-H322M | 0.468 | 0.315 | 0.406 | 0.359 | 0.294
29 | NCI-H358 | 0.0994 | 0.103 | 0.0971 | 0.0967 | 0.117
30 | NCI-H441 | 0.922 | 0.777 | 0.651 | 0.675 | 0.657
31 | NCI-H460 | 0.421 | 0.482 | 0.537 | 0.475 | 0.222
32 | NCI-H520 | 0.471 | 0.397 | 0.41 | 0.444 | 0.342
33 | NCI-H522 | 0.575 | 0.638 | 0.6 | 0.577 | 0.543
34 | NCI-H596 | 1.02 | 1.08 | 0.719 | 0.857 | 0.562
35 | NCI-H647 | 0.329 | 0.312 | 0.0065 | 0.182 | 0.173
36 | NCI-H650 | 0.732 | 0.753 | 0.821 | 0.654 | 0.603
37 | NCI-H661 | 0.344 | 0.343 | 0.371 | 0.372 | 0.379
38 | NCI-H727 | 0.695 | 0.489 | 0.806 | 0.503 | 0.468
39 | NCI-H838 | 0.272 | 0.244 | 0.312 | 0.264 | 0.19
40 | NCI-H1355 | 0.553 | 0.614 | 0.509 | 0.45 | 0.423
41 | NCI-H1395 | 0.804 | 0.68 | 0.789 | 0.543 | 0.436
42 | NCI-H1437 | 0.414 | 0.46 | 0.402 | 0.361 | 0.381
43 | NCI-H1648 | 0.395 | 0.436 | – | 0.377 | 0.381
44 | NCI-H1650 | – | 0.408 | 0.33 | 0.3 | 0.261
45 | NCI-H1651 | 0.586 | 0.721 | 0.641 | 0.429 | 0.176
46 | NCI-H1666 | 0.608 | 0.589 | 0.606 | 0.522 | 0.511
47 | NCI-H1734 | 0.214 | 0.25 | 0.284 | 0.213 | 0.211
48 | NCI-H1755 | 0.715 | 0.619 | 0.648 | 0.54 | 0.489

Row | Cell Line | relative viability (first compound 0.05 µM) | relative viability (first compound 0.1581 µM) | relative viability (first compound 0.5 µM) | relative viability (first compound 1.581 µM) | relative viability (first compound 5 µM)
49 | NCI-H1793 | 0.39 | 0.806 | 0.282 | 0.341 | 0.2
50 | NCI-H1915 | 0.47 | 0.493 | 0.44 | 0.359 | 0.411
51 | NCI-H1944 | 0.263 | 0.273 | 0.255 | 0.241 | 0.21
52 | NCI-H1975 | 0.868 | 0.757 | 0.63 | 0.532 | 0.51
53 | NCI-H1993 | 0.62 | 0.602 | 0.463 | 0.513 | 0.538
54 | NCI-H2009 | 0.745 | 0.702 | 0.651 | 0.565 | 0.448
55 | NCI-H2023 | 0.361 | 0.254 | 0.238 | 0.15 | 0.122
56 | NCI-H2085 | 0.807 | 0.928 | 0.866 | 0.811 | 0.736
57 | NCI-H2087 | 0.222 | 0.253 | 0.241 | 0.263 | 0.174
58 | NCI-H2126 | 0.809 | 0.819 | 0.774 | 0.611 | 0.644
59 | NCI-H2170 | 0.78 | 0.789 | 0.644 | 0.894 | 0.855
60 | NCI-H2228 | 0.249 | 0.221 | 0.205 | 0.211 | 0.124
61 | NCI-H2342 | 0.547 | 0.522 | 0.531 | 0.52 | 0.408
62 | NCI-H2347 | 0.539 | 0.563 | 0.518 | 0.49 | 0.44
63 | NCI-H2405 | 0.733 | 0.784 | 0.723 | 0.743 | 0.498
64 | NCI-H3122 | 0.508 | 0.403 | 0.401 | 0.283 | 0.329
65 | PC-3 [JPC-3] | 0.812 | 0.986 | 0.94 | 0.75 | 0.91
66 | PC-14 | 0.634 | 0.458 | 0.594 | 0.438 | 0.274
67 | RERF-LC-KJ | 0.52 | 0.502 | 0.501 | 0.346 | 0.384
68 | SK-LU-1 | 0.35 | 0.193 | 0.192 | 0.201 | 0.169
69 | SK-MES-1 | 0.987 | 0.675 | 0.57 | 0.268 | 0.137
70 | SW 1573 | 0.175 | 0.175 | 0.17 | 0.176 | 0.149
71 | UMC-11 | 0.276 | 0.204 | 0.217 | 0.205 | 0.187
